In brackets after ≈: the same amount, converted by molar mass.
Experiments:
Staphylococcus aureus = assay: Antibacterial activity against Staphylococcus aureus ATCC 6538 after 24 hrs by MTT assay; assay type: functional; settings: ATCC 6538, 24 h
Bacillus subtilis = assay: Antibacterial activity against Bacillus subtilis ATCC 530 after 24 hrs by MTT assay; assay type: functional; settings: ATCC 530, 24 h
Pseudomonas aeruginosa = assay: Antibacterial activity against Pseudomonas aeruginosa ATCC 27853 after 24 hrs by MTT assay; assay type: functional; settings: ATCC 27853, 24 h
Escherichia coli = assay: Antibacterial activity against Escherichia coli ATCC 25922 after 24 hrs by MTT assay; assay type: functional; settings: ATCC 25922, 24 h
[1] = Inhibition of Escherichia coli FabH expressed in Escherichia coli BL21(DE3) using holo-ACP as substrate after 25 mins
[2] = Toxicity in RBC assessed as concentration required for 30% hemolysis; assay type: cell-based; settings: erythrocyte

Row | Structure (SMILES) | MIC (Staphylococcus aureus) [µg/mL] | MIC (Bacillus subtilis) [µg/mL] | MIC (Pseudomonas aeruginosa) [µg/mL] | MIC (Escherichia coli) [µg/mL] | IC50 [1] [µM] | HC30 [2] [mg/mL]
1 | O=C1CSC(N2N=C(c3ccc(F)cc3)CC2c2cccs2)=N1 (stereo not given) | 12.5 (≈ 36.2 µM) | 12.5 (≈ 36.2 µM) | > 50 | 6.25 (≈ 18.1 µM) |  | 
2 | COc1ccc(C2=NN(c3nc(-c4ccccc4)cs3)C(c3cccs3)C2)cc1 (stereo not given) | 6.25 (≈ 15 µM) | 12.5 (≈ 29.9 µM) | 50 (≈ 120 µM) | 6.25 (≈ 15 µM) | 30.6 | > 10
3 | COc1ccc(C2=NN(c3nc(-c4ccc(OC)cc4)cs3)C(c3cccs3)C2)cc1 (stereo not given) | 12.5 (≈ 27.9 µM) | 50 (≈ 112 µM) | 12.5 (≈ 27.9 µM) | 12.5 (≈ 27.9 µM) |  | 
4 | Clc1ccc(C2=NN(c3nc(-c4ccccc4)cs3)C(c3ccco3)C2)cc1Cl (stereo not given) | 12.5 (≈ 28.4 µM) | 12.5 (≈ 28.4 µM) | > 50 | 12.5 (≈ 28.4 µM) |  | 
5 | COc1ccc(-c2csc(N3N=C(c4ccc(Br)cc4)CC3c3ccco3)n2)cc1 (stereo not given) | 12.5 (≈ 26 µM) | 6.25 (≈ 13 µM) | 6.25 (≈ 13 µM) | 6.25 (≈ 13 µM) | 19.7 | > 10
6 | Fc1ccc(C2=NN(c3nc(-c4ccccc4)cs3)C(c3cccs3)C2)cc1 (stereo not given) | 12.5 (≈ 30.8 µM) | 50 (≈ 123 µM) | 12.5 (≈ 30.8 µM) | 12.5 (≈ 30.8 µM) |  | 
7 | Cc1ccc(C2=NN(c3nc(-c4ccccc4)cs3)C(c3ccco3)C2)cc1 (stereo not given) | 1.56 (≈ 4.05 µM) | 3.13 (≈ 8.12 µM) | 1.56 (≈ 4.05 µM) | 1.56 (≈ 4.05 µM) | 4.6 | > 10
8 | COc1ccc(-c2csc(N3N=C(c4ccc(Br)cc4)CC3c3cccs3)n2)cc1 (stereo not given) | 12.5 (≈ 25.2 µM) | 12.5 (≈ 25.2 µM) | 12.5 (≈ 25.2 µM) | 6.25 (≈ 12.6 µM) |  | 
9 | O=C1CSC(N2N=C(c3ccc(Br)cc3)CC2c2cccs2)=N1 (stereo not given) | 12.5 (≈ 30.8 µM) | 12.5 (≈ 30.8 µM) | 6.25 (≈ 15.4 µM) | 6.25 (≈ 15.4 µM) | 27.1 | > 10
10 | NC[C@H]1O[C@H](O[C@H]2[C@H](O)[C@@H](O[C@H]3O[C@H](CO)[C@@H](O)[C@H](N)[C@H]3O)[C@H](N)C[C@@H]2N)[C@H](N)[C@@H](O)[C@@H]1O [BEKANAMYCIN] | 3.13 (≈ 6.47 µM) | 3.13 (≈ 6.47 µM) | 1.56 (≈ 3.23 µM) | 1.56 (≈ 3.23 µM) |  | 
11 | COc1ccc(C2=NN(C3=NC(=O)CS3)C(c3cccs3)C2)cc1 (stereo not given) | 12.5 (≈ 35 µM) | 50 (≈ 140 µM) | > 50 | 12.5 (≈ 35 µM) | 89.9 | > 10
12 | Brc1ccc(C2=NN(c3nc(-c4ccccc4)cs3)C(c3ccco3)C2)cc1 (stereo not given) | 1.56 (≈ 3.46 µM) | 3.13 (≈ 6.95 µM) | 3.13 (≈ 6.95 µM) | 3.13 (≈ 6.95 µM) | 9.7 | > 10
13 | O=C1CSC(N2N=C(c3ccc(Br)cc3)CC2c2ccco2)=N1 (stereo not given) | 6.25 (≈ 16 µM) | 12.5 (≈ 32 µM) | 12.5 (≈ 32 µM) | 6.25 (≈ 16 µM) |  | 
14 | Cc1ccc(C2=NN(C3=NC(=O)CS3)C(c3ccccc3)C2)cc1 (stereo not given) | 6.25 (≈ 18.6 µM) | 12.5 (≈ 37.3 µM) | 12.5 (≈ 37.3 µM) | 12.5 (≈ 37.3 µM) |  | 
15 | Cc1ccc(C2=NN(C3=NC(=O)CS3)C(c3ccco3)C2)cc1 (stereo not given) | 6.25 (≈ 19.2 µM) | 3.13 (≈ 9.62 µM) | 6.25 (≈ 19.2 µM) | 3.13 (≈ 9.62 µM) | 18.4 | > 10
16 | COc1ccc(-c2csc(N3N=C(c4ccc(Cl)c(Cl)c4)CC3c3cccs3)n2)cc1 (stereo not given) | 50 (≈ 103 µM) | 12.5 (≈ 25.7 µM) | 12.5 (≈ 25.7 µM) | 50 (≈ 103 µM) | > 150 | > 10
17 | O=C1CSC(N2N=C(c3ccc(Cl)c(Cl)c3)CC2c2ccco2)=N1 (stereo not given) | 6.25 (≈ 16.4 µM) | 12.5 (≈ 32.9 µM) | 12.5 (≈ 32.9 µM) | 12.5 (≈ 32.9 µM) |  | 
18 | COc1ccc(-c2csc(N3N=C(c4ccc(F)cc4)CC3c3cccs3)n2)cc1 (stereo not given) | 12.5 (≈ 28.7 µM) | 12.5 (≈ 28.7 µM) | 12.5 (≈ 28.7 µM) | 12.5 (≈ 28.7 µM) |  | 
19 | Cc1ccc(C2=NN(c3nc(-c4ccccc4)cs3)C(c3ccccc3)C2)cc1 (stereo not given) | 12.5 (≈ 31.6 µM) | 12.5 (≈ 31.6 µM) | 12.5 (≈ 31.6 µM) | 6.25 (≈ 15.8 µM) |  | 
20 | O=C1CSC(N2N=C(c3ccc(F)cc3)CC2c2ccco2)=N1 (stereo not given) | 3.13 (≈ 9.5 µM) | 3.13 (≈ 9.5 µM) | 6.25 (≈ 19 µM) | 3.13 (≈ 9.5 µM) | 8.4 | > 10
21 | COc1ccc(-c2csc(N3N=C(c4ccc(C)cc4)CC3c3ccco3)n2)cc1 (stereo not given) | 6.25 (≈ 15 µM) | 6.25 (≈ 15 µM) | 3.13 (≈ 7.53 µM) | 3.13 (≈ 7.53 µM) | 15.7 | > 10
22 | Brc1ccc(C2=NN(c3nc(-c4ccccc4)cs3)C(c3cccs3)C2)cc1 (stereo not given) | 12.5 (≈ 26.8 µM) | 6.25 (≈ 13.4 µM) | 12.5 (≈ 26.8 µM) | 6.25 (≈ 13.4 µM) | 23.3 | > 10
23 | COc1ccc(-c2csc(N3N=C(c4ccc(C)cc4)CC3c3cccs3)n2)cc1 (stereo not given) | 12.5 (≈ 29 µM) | 6.25 (≈ 14.5 µM) | 12.5 (≈ 29 µM) | 6.25 (≈ 14.5 µM) |  | 
24 | Fc1ccc(C2=NN(c3nc(-c4ccccc4)cs3)C(c3ccco3)C2)cc1 (stereo not given) | 6.25 (≈ 16 µM) | 50 (≈ 128 µM) | 12.5 (≈ 32.1 µM) | 6.25 (≈ 16 µM) | 22.3 | > 10
25 | Clc1ccc(C2=NN(c3nc(-c4ccccc4)cs3)C(c3cccs3)C2)cc1Cl (stereo not given) | > 50 | 12.5 (≈ 27.4 µM) | 12.5 (≈ 27.4 µM) | 50 (≈ 110 µM) | > 150 | > 10
26 | Cc1ccc(C2=NN(C3=NC(=O)CS3)C(c3cccs3)C2)cc1 (stereo not given) | 3.13 (≈ 9.17 µM) | 6.25 (≈ 18.3 µM) | 6.25 (≈ 18.3 µM) | 6.25 (≈ 18.3 µM) | 13.6 | > 10
27 | O=C1CSC(N2N=C(c3ccc(Cl)c(Cl)c3)CC2c2cccs2)=N1 (stereo not given) | 12.5 (≈ 31.5 µM) | > 50 | 12.5 (≈ 31.5 µM) | 12.5 (≈ 31.5 µM) |  | 
28 | Cc1ccc(C2=NN(c3nc(-c4ccccc4)cs3)C(c3cccs3)C2)cc1 (stereo not given) | 1.56 (≈ 3.88 µM) | 3.13 (≈ 7.79 µM) | 1.56 (≈ 3.88 µM) | 3.13 (≈ 7.79 µM) | 10.9 | > 10
29 | COc1ccc(-c2csc(N3N=C(c4ccc(Cl)c(Cl)c4)CC3c3ccco3)n2)cc1 (stereo not given) | 12.5 (≈ 26.6 µM) | > 50 | > 50 | 50 (≈ 106 µM) |  | 
30 | COc1ccc(-c2csc(N3N=C(c4ccc(F)cc4)CC3c3ccco3)n2)cc1 (stereo not given) | 12.5 (≈ 29.8 µM) | 12.5 (≈ 29.8 µM) | 6.25 (≈ 14.9 µM) | 6.25 (≈ 14.9 µM) |  | 

— ChEMBL document CHEMBL2046396, “Discovery and modification of sulfur-containing heterocyclic pyrazoline derivatives as potential novel class of β-ketoacyl-acyl carrier protein synthase III (FabH) inhibitors” (Bioorg Med Chem Lett, 2012)
